The record followed here is ChEMBL document CHEMBL4145648, “Swinhoeisterols from the South China Sea Sponge Theonella swinhoei” (J Nat Prod, 2018).

SMILES strings stand for the structures. pIC50: −log10 of the molar value.

Histone acetyltransferase p300, sequence (Q09472 whole entry): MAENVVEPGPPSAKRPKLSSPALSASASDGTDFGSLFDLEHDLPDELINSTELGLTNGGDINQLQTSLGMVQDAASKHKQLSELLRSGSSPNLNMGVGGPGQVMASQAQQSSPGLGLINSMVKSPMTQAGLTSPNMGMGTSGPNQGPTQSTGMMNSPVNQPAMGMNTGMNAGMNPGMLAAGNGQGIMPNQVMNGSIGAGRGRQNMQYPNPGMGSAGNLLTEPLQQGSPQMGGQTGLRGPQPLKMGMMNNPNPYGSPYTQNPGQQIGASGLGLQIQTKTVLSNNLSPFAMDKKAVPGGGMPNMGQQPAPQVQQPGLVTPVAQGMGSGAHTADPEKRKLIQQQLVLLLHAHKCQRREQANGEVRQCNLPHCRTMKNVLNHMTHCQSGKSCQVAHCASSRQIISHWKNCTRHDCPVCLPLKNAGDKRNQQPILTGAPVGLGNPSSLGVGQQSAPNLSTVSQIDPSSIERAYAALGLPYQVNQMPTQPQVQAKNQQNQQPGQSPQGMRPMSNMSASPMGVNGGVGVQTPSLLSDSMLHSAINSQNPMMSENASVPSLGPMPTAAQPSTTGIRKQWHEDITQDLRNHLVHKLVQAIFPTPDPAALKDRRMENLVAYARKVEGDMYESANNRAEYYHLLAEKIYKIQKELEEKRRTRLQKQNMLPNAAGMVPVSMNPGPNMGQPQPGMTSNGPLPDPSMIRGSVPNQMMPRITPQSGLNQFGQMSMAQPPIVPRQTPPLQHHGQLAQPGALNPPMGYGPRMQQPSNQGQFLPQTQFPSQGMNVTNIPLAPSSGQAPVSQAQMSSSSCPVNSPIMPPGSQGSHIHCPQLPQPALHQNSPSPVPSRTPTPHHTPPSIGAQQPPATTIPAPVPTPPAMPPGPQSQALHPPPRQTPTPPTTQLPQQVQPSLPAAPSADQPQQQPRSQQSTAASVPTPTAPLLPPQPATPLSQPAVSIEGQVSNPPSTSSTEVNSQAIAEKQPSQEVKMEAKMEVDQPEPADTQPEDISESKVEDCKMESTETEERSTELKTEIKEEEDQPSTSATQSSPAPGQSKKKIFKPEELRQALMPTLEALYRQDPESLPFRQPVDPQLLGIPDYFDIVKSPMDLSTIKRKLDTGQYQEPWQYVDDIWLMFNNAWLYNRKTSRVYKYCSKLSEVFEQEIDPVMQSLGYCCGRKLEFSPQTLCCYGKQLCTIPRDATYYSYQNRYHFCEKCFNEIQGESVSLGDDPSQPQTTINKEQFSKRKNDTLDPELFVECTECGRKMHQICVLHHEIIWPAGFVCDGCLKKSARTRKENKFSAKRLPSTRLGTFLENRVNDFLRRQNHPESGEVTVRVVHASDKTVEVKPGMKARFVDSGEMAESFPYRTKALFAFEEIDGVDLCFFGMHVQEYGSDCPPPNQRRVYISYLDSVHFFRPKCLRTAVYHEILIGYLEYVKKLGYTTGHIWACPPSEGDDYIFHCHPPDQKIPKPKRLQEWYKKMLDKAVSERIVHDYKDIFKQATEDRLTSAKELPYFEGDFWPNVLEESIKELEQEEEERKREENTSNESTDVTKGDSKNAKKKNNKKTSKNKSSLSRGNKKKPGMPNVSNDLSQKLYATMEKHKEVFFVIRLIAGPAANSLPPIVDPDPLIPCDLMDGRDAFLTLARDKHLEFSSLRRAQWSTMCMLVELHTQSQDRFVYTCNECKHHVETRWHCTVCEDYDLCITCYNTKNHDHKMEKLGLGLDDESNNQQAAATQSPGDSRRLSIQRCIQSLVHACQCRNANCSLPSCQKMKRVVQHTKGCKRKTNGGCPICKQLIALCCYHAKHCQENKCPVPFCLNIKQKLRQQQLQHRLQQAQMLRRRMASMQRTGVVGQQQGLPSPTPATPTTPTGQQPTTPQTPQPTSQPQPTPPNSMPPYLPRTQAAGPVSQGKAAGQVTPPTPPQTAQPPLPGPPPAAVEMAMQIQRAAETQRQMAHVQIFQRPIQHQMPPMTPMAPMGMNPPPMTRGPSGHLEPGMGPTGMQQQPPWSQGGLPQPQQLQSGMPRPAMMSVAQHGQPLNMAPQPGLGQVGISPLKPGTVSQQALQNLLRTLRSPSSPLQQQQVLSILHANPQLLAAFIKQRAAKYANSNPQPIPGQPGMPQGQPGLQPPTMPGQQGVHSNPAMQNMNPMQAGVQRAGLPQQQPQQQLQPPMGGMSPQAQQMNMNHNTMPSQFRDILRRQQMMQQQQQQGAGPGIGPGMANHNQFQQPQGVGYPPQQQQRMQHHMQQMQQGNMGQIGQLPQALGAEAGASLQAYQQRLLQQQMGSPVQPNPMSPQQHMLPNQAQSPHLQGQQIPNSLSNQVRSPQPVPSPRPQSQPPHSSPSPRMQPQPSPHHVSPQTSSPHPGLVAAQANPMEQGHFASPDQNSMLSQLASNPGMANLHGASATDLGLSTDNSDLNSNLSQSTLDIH

The assay addresses Histone acetyltransferase p300 (Homo sapiens, UniProt Q09472). The experiment in a line: Inhibition of human p300 expressed in Escherichia coli incubated for 15 mins followed by [3H]acetyl-CoA/histone addition.
Consider `C=C1[C@@H](O)CC[C@]2(C)[C@H]3CC[C@@]4(C)[C@]35O[C@]4([C@H](C)CC[C@@H](C)C(C)C)CCC(=O)[C@@H]5C[C@@H]12`, for which the pIC50 was less than 5.00.
`C=C1[C@@H](O)CC[C@@]2(C)[C@H]1C[C@]1(O)C(=O)CC[C@H]([C@H](C)CC[C@@H](C)C(C)C)[C@@]3(C)CC[C@]24O[C@@]413` had a pIC50 of less than 5.00.
Turning to `C=C1[C@@H](O)CC[C@]2(C)C3=C4[C@@H](C[C@@H]12)C(=O)CC[C@H]([C@H](C)CC[C@@H](C)C(C)C)[C@@]4(C)CC3`, the pIC50 is 5.48.
As to `C=C1[C@@H](O)CC[C@@]2(C)[C@H]1CC1=C3[C@@H]2CC[C@]3(C)[C@@H]([C@H](C)CC[C@@H](C)C(C)C)CCC1=O`, the pIC50 is less than 5.00.
Consider `C=C1[C@@H](O)CC[C@@]2(C)[C@H]1C[C@H]1C(=O)CC[C@H]([C@H](C)CC[C@@H](C)C(C)C)[C@@]3(C)CC[C@]24O[C@]143`, for which the negative-log IC50 (pIC50) was 5.06.
In turn, `C=C(C)[C@H](CC=C(C)C)C[C@]12C[C@H](CC=C(C)C)C(C)(C)[C@](CC=C(C)C)(C(=O)C(C(=O)c3ccc(O)c(O)c3)=C1O)C2=O` gave a pIC50 of 6.30.

The term pIC50 denotes −log10 of the IC50, conventionally taken in molar units. Read a high pIC50 as a low IC50.
